Test results reported in patent US20220243210A1, “ANGIOTENSIN II TYPE 1 RECEPTOR TARGETED OLIGONUCLEOTIDES AND USES THEREOF” (Ionis Pharmaceuticals, Inc., priority 2019, published 2022).

How the values were obtained:
[1] = biological target: T1, human AGTR1 (Homo sapiens, UniProt P30556); test: AGTR1 signaling, IP-One Gq kit (IP1 accumulation), HEK-AGTR1 FAP cells; type: cell-based; details: 90 minutes
T1 construct: host or cells: HEK293 (HEK-AGTR1 FAP cells)
T1 sequence (P30556 1-359): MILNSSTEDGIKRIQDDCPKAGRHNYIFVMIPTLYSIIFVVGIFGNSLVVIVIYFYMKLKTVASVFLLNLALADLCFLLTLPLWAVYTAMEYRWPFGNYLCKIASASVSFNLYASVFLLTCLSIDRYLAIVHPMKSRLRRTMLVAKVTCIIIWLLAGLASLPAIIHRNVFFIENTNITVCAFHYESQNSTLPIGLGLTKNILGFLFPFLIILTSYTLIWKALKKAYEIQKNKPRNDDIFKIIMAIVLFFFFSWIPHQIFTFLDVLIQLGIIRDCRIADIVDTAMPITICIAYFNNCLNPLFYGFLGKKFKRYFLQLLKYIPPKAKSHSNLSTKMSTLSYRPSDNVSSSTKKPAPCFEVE
Protocol: (§1) Activated AGTR1 couples to the Gαq subunit of heterotrimeric G proteins, which activates the phospholipase C (PLC) and subsequently inositol 1,4,5-trisphosphate (IP3) signaling cascade. AGTR1 signaling was measured using an IP-One Gq kit (cisbio #62IPAPEB). The kit detects the accumulation of inositol monophosphate (IP1), a stable downstream metabolite of IP3 induced by activation of a phospholipase C (PLC) cascade.
An additional control compound, AngII, which consists of the peptide motif […], was also tested. […] AGTR1 activation was measured using the IP-One Gq kit.

[2] = system: HEK-APLNR FAP cells; test: IP1 accumulation negative control in HEK-APLNR FAP cells (do not express AGTR1); type: cell-based, human; details: 24 hours
Protocol: as §1
As a negative control, Compound Nos. 556089 and 1229761 were also tested in HEK293 cells expressing FAP tagged human Apelin receptor (HEK-APLNR FAP cells from Spectragenetics). […] HEK-APLNR FAP cells were cultured with Compound Nos. 556089 and 1229761, described herein above, at the concentrations detailed in Table 2 for 24 hours.

[3] = system: mouse MALAT RNA; test: MALAT RNA reduction in vivo, C57BL6/J mice, multiple dose; details: for ED50: IV day 0, 4, 8
Protocol: Compound Nos. 556089, 1229761, and 1229762 are described in Table 1 above. Compound Nos. 556089, 1229761, and 1229762 were tested in C57BL6/J mice. The mice were divided into groups of 4 mice each. […] The mice were then sacrificed on day 12. Heart, adipose, adrenal, kidney, and liver tissue was then collected and homogenized and RNA analysis was performed. A group of 4 mice received PBS as a negative control.
RNA was extracted from heart, adipose, adrenal, kidney, and liver tissue for real-time PCR analysis of measurement of RNA expression of MALAT using primer probe set mMALAT1 #2 (forward sequence […] (SEQ ID NO: 5); reverse sequence […] (SEQ ID NO: 6); probe sequence […] (SEQ ID NO: 7)). Results are presented as percent change of RNA, relative to PBS control, normalized to mouse GAPDH.

[4] = system: human MALAT1 RNA; test: MALAT1 RNA reduction in HEK-AGTR1 FAP cells, free uptake, 48 hours; type: cell-based; details: for MALAT (% control) / IC50: 48 hours; for MALAT (% control): relative to untreated control cells; for IC50: MALAT1 RNA, three parameter fit
Protocol: At the end of the treatment period, total RNA was isolated from the cells and MALAT1 RNA levels were measured by quantitative real-time PCR. […] MALAT1 RNA levels were normalized according to total RNA content, as measured by RIBOGREEN®. […] The half maximal inhibitory concentration (IC50) of each modified oligonucleotide was calculated using a non-linear fit [inhibitor] vs. response-variable slope (three parameters) formula in GraphPad Prism 7.01.

[5] = system: human MALAT1 RNA; test: MALAT1 RNA reduction in HEK-AGTR1 FAP cells, free uptake, 24 hours; type: cell-based; details: for MALAT (% control): relative to untreated control cells; for IC50: MALAT1 RNA, four parameter fit
Protocol: At the end of the treatment period, total RNA was isolated from the cells and MALAT1 RNA levels were measured by quantitative real-time PC&. […] MALAT1 RNA levels were normalized according to total RNA content, as measured by RIBOGREEN®. Reduction of MALAT1 RNA is presented Table 3 below as percent MALAT1 RNA amount relative to untreated control (UTC) cells. The half maximal inhibitory concentration (IC50) of each modified oligonucleotide was calculated using a non-linear fit [inhibitor] vs. response—variable slope (four parameters) formula in GraphPad Prism 7.01.

[6] = Adipose, 0.4 μmol/kg IV day 0, 4, 8, sacrifice day 12, relative to PBS
[7] = Adipose, 1.2 μmol/kg IV day 0, 4, 8, sacrifice day 12, relative to PBS
[8] = Adipose, 3.6 μmol/kg IV day 0, 4, 8, sacrifice day 12, relative to PBS
[9] = Adrenal, 0.4 μmol/kg IV day 0, 4, 8, sacrifice day 12, relative to PBS
[10] = Adrenal, 1.2 μmol/kg IV day 0, 4, 8, sacrifice day 12, relative to PBS
[11] = Adrenal, 3.6 μmol/kg IV day 0, 4, 8, sacrifice day 12, relative to PBS
[12] = Heart, 0.4 μmol/kg IV day 0, 4, 8, sacrifice day 12, relative to PBS
[13] = Heart, 1.2 μmol/kg IV day 0, 4, 8, sacrifice day 12, relative to PBS
[14] = Heart, 3.6 μmol/kg IV day 0, 4, 8, sacrifice day 12, relative to PBS
[15] = Kidney, 0.4 μmol/kg IV day 0, 4, 8, sacrifice day 12, relative to PBS
[16] = Kidney, 1.2 μmol/kg IV day 0, 4, 8, sacrifice day 12, relative to PBS
[17] = Kidney, 3.6 μmol/kg IV day 0, 4, 8, sacrifice day 12, relative to PBS
[18] = Liver, 0.4 μmol/kg IV day 0, 4, 8, sacrifice day 12, relative to PBS
[19] = Liver, 1.2 μmol/kg IV day 0, 4, 8, sacrifice day 12, relative to PBS
[20] = Liver, 3.6 μmol/kg IV day 0, 4, 8, sacrifice day 12, relative to PBS

## AngII
[1]; 0.0256 nM
  IP1 accumulation: 1.183 µM
[1]; 0.128 nM
  IP1 accumulation: 2.569 µM
[1]; 0.64 nM
  IP1 accumulation: 1.71 µM
[1]; 3.2 nM
  IP1 accumulation: 4.465 µM
[1]; 16 nM
  IP1 accumulation: 8.913 µM
[1]; 80 nM
  IP1 accumulation: 15.383 µM
[1]; 400 nM
  IP1 accumulation: 13.89 µM
[1]; 2000 nM
  IP1 accumulation: 14.825 µM

## Compound No. 1229761: Angiotensin II peptide [N6-(2-azidoacetyl)-K]DRVYIHPF conjugated via linker to 5′-end of MALAT1 modified oligonucleotide TCAGCATTCTAATAGCAGC
[2]; 0.0256 nM
  IP1 accumulation: 590 nM
[2]; 0.128 nM
  IP1 accumulation: 477 nM
[2]; 0.64 nM
  IP1 accumulation: 564 nM
[2]; 3.2 nM
  IP1 accumulation: 510 nM
[2]; 16 nM
  IP1 accumulation: 505 nM
[2]; 80 nM
  IP1 accumulation: 492 nM
[2]; 400 nM
  IP1 accumulation: 425 nM
[2]; 2000 nM
  IP1 accumulation: 472 nM
[3]; [6]
  MALAT-1 RNA (% control): 66.2 % control
[3]; [7]
  MALAT-1 RNA (% control): 33.0 % control
[3]; [8]
  MALAT-1 RNA (% control): 15.5 % control
[3]; Adipose
  ED50: 0.1 µmol/kg
[3]; [9]
  MALAT-1 RNA (% control): 90.3 % control
[3]; [10]
  MALAT-1 RNA (% control): 59.7 % control
[3]; [11]
  MALAT-1 RNA (% control): 41.5 % control
[3]; Adrenal
  ED50: 1.091 µmol/kg
[3]; [12]
  MALAT-1 RNA (% control): 82.3 % control
[3]; [13]
  MALAT-1 RNA (% control): 68.7 % control
[3]; [14]
  MALAT-1 RNA (% control): 31.7 % control
[3]; Heart
  ED50: 2.686 µmol/kg
[3]; [15]
  MALAT-1 RNA (% control): 53.8 % control
[3]; [16]
  MALAT-1 RNA (% control): 39.6 % control
[3]; [17]
  MALAT-1 RNA (% control): 21.4 % control
[3]; Kidney
  ED50: 1.88 µmol/kg
[3]; [18]
  MALAT-1 RNA (% control): 34.7 % control
[3]; [19]
  MALAT-1 RNA (% control): 12 % control
[3]; [20]
  MALAT-1 RNA (% control): 5.7 % control
[3]; Liver
  ED50: 0.063 µmol/kg
[4]; 2.7 nM
  MALAT (% control): 94 % control
[4]; 8.2 nM
  MALAT (% control): 98 % control
[4]; 24.7 nM
  MALAT (% control): 92 % control
[4]; 74.1 nM
  MALAT (% control): 85 % control
[4]; 222.2 nM
  MALAT (% control): 53 % control
[4]; 666.7 nM
  MALAT (% control): 26 % control
[4]; 2000 nM
  MALAT (% control): 18 % control
[4]; 6000 nM
  MALAT (% control): 16 % control
[4]; .10 nM
  MALAT (% control): 85 % control
[4]; .3 nM
  MALAT (% control): 99 % control
[4]; .9 nM
  MALAT (% control): 91 % control
[4]
  IC50: 290 nM
[4]; compared to parent unconjugated Compound No. 556089, 48 hours
  reduction of target RNA in words: significantly greater reduction of target RNA
[5]; 12 nM, 24 hours
  MALAT (% control): 126 % control
[5]; 111 nM, 24 hours
  MALAT (% control): 76 % control
[5]; 333 nM, 24 hours
  MALAT (% control): 63 % control
[5]; 1000 nM, 24 hours
  MALAT (% control): 67 % control
[5]; 3000 nM, 24 hours
  MALAT (% control): 36 % control
[5]; 9000 nM, 24 hours
  MALAT (% control): 33 % control
[5]; 24 hours
  IC50: 182 nM
[5]; compared to parent unconjugated Compound No. 556089, 24 hours
  reduction of target RNA in words: significantly greater reduction of target RNA

## Compound No. 1229762: Extended Angiotensin II peptide [N6-(2-azidoacetyl)-K]PPPAGSSPGDRVYIHPF conjugated via linker to 5′-end of MALAT1 modified oligonucleotide TCAGCATTCTAATAGCAGC
[2]; 0.0256 nM
  IP1 accumulation: 723 nM
[2]; 0.128 nM
  IP1 accumulation: 634 nM
[2]; 0.64 nM
  IP1 accumulation: 679 nM
[2]; 3.2 nM
  IP1 accumulation: 596 nM
[2]; 16 nM
  IP1 accumulation: 526 nM
[2]; 80 nM
  IP1 accumulation: 517 nM
[2]; 400 nM
  IP1 accumulation: 609 nM
[2]; 2000 nM
  IP1 accumulation: 576 nM
[3]; [6]
  MALAT-1 RNA (% control): 58.3 % control
[3]; [7]
  MALAT-1 RNA (% control): 40.1 % control
[3]; [8]
  MALAT-1 RNA (% control): 20.5 % control
[3]; Adipose
  ED50: 1.385 µmol/kg
[3]; [9]
  MALAT-1 RNA (% control): 87.8 % control
[3]; [10]
  MALAT-1 RNA (% control): 66.5 % control
[3]; [11]
  MALAT-1 RNA (% control): 45.2 % control
[3]; Adrenal
  ED50: 1.2 µmol/kg
[3]; [12]
  MALAT-1 RNA (% control): 86.2 % control
[3]; [13]
  MALAT-1 RNA (% control): 73.4 % control
[3]; [14]
  MALAT-1 RNA (% control): 40 % control
[3]; Heart
  ED50: 3.14 µmol/kg
[3]; [15]
  MALAT-1 RNA (% control): 50.6 % control
[3]; [16]
  MALAT-1 RNA (% control): 43.8 % control
[3]; [17]
  MALAT-1 RNA (% control): 22.4 % control
[3]; Kidney
  ED50: 3.084 µmol/kg
[3]; [18]
  MALAT-1 RNA (% control): 40.5 % control
[3]; [19]
  MALAT-1 RNA (% control): 15.1 % control
[3]; [20]
  MALAT-1 RNA (% control): 5.7 % control
[3]; Liver
  ED50: 0.085 µmol/kg
[4]; 2.7 nM
  MALAT (% control): 100 % control
[4]; 8.2 nM
  MALAT (% control): 80 % control
[4]; 24.7 nM
  MALAT (% control): 69 % control
[4]; 74.1 nM
  MALAT (% control): 66 % control
[4]; 222.2 nM
  MALAT (% control): 42 % control
[4]; 666.7 nM
  MALAT (% control): 16 % control
[4]; 2000 nM
  MALAT (% control): 12 % control
[4]; 6000 nM
  MALAT (% control): 9 % control
[4]; .10 nM
  MALAT (% control): 103 % control
[4]; .3 nM
  MALAT (% control): 106 % control
[4]; .9 nM
  MALAT (% control): 101 % control
[4]
  IC50: 125 nM
[5]; 12 nM, 24 hours
  MALAT (% control): 105 % control
[5]; 37 nM, 24 hours
  MALAT (% control): 90 % control
[5]; 111 nM, 24 hours
  MALAT (% control): 59 % control
[5]; 333 nM, 24 hours
  MALAT (% control): 36 % control
[5]; 1000 nM, 24 hours
  MALAT (% control): 41 % control
[5]; 3000 nM, 24 hours
  MALAT (% control): 22 % control
[5]; 9000 nM, 24 hours
  MALAT (% control): 24 % control
[5]; 24 hours
  IC50: 100 nM
[5]; among compounds tested, 24 hours
  improvement in target knockdown in words: greatest improvement in target knockdown
